{"source": "paper PMC5540273", "about": "“Progress towards a public chemogenomic set for protein kinases and a call for contributions” (PLoS ONE, 2017)", "assay_in_all_cases": "KINOMEscan competition binding", "key": {"MAP3K2": {"target": "T1, MAP3K2 (Homo sapiens, UniProt Q9Y2U5)", "T1 sequence (Q9Y2U5 1-619)": "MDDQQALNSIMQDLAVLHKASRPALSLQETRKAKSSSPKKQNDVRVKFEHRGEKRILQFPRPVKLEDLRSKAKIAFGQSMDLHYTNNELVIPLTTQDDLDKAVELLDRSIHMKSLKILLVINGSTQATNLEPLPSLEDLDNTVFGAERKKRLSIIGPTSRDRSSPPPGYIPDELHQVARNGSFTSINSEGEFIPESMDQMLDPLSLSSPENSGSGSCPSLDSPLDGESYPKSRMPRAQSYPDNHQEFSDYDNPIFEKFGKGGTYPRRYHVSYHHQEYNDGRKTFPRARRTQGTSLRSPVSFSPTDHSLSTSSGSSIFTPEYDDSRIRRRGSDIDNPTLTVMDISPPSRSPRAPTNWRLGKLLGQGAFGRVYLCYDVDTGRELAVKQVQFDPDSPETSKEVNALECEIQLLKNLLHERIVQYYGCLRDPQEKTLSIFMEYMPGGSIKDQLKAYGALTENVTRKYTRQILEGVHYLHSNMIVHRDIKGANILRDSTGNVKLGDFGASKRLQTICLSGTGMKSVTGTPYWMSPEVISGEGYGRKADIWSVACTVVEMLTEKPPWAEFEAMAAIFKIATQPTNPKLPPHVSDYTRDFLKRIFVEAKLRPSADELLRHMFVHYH", "conditions": "read-out: %Inh MAP3K2"}, "HCK": {"target": "HCK (Homo sapiens, UniProt P08631)", "sequence (P08631 whole entry)": "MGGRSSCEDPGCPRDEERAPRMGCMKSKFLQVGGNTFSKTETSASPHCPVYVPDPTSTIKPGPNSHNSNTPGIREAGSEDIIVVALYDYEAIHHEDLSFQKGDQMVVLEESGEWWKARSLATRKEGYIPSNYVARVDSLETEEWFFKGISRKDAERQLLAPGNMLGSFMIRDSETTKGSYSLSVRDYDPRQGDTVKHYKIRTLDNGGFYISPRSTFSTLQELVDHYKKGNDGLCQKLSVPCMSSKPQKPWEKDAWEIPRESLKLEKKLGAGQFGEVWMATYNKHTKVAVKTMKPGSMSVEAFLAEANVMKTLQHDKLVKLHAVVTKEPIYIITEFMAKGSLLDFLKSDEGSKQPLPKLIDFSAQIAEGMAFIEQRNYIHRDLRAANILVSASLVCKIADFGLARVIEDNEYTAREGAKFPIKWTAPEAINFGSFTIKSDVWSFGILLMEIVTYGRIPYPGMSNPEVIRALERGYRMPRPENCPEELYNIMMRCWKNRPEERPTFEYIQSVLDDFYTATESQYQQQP", "conditions": "read-out: %Inh HCK"}, "FGR": {"target": "FGR (Homo sapiens, UniProt P09769)", "sequence (P09769 whole entry)": "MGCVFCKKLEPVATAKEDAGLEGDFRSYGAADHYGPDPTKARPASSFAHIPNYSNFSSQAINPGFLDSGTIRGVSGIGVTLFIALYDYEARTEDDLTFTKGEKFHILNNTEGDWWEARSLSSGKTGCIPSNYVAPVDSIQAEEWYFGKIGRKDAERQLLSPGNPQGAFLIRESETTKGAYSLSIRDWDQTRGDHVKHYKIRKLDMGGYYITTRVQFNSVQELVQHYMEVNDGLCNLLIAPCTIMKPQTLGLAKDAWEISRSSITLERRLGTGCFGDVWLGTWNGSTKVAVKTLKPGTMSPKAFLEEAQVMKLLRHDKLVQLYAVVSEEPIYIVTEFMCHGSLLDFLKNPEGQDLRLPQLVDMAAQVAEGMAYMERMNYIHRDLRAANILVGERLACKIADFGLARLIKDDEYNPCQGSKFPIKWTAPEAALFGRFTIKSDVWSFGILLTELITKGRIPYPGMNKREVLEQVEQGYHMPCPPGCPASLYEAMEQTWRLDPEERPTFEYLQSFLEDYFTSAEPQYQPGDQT", "conditions": "read-out: %Inh FGR"}, "FGFR2": {"target": "FGFR2 (Homo sapiens, UniProt P21802)", "sequence (P21802 22-821)": "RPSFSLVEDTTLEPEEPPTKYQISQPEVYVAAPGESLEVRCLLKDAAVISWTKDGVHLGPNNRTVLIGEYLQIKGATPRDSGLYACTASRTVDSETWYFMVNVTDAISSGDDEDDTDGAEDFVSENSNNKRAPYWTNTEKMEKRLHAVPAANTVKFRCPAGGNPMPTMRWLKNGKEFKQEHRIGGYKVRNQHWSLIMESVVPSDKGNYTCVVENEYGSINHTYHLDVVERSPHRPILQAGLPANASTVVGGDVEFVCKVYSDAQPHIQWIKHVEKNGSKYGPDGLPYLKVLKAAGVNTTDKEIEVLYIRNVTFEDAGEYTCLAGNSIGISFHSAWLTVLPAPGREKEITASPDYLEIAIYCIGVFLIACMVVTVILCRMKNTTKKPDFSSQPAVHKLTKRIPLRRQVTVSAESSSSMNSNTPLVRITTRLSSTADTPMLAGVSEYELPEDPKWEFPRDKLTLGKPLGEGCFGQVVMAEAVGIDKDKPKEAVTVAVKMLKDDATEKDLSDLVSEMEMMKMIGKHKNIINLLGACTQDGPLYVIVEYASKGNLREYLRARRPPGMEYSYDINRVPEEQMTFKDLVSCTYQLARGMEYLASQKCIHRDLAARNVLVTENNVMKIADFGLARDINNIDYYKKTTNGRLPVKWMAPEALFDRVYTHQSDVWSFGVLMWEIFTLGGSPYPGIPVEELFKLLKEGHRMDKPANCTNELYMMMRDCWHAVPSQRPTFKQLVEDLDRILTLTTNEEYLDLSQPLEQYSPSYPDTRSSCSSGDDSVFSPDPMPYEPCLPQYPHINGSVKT", "conditions": "read-out: %Inh FGFR2"}, "CTK": {"target": "T2, CTK (Homo sapiens, UniProt P42679)", "T2 sequence (P42679 1-507)": "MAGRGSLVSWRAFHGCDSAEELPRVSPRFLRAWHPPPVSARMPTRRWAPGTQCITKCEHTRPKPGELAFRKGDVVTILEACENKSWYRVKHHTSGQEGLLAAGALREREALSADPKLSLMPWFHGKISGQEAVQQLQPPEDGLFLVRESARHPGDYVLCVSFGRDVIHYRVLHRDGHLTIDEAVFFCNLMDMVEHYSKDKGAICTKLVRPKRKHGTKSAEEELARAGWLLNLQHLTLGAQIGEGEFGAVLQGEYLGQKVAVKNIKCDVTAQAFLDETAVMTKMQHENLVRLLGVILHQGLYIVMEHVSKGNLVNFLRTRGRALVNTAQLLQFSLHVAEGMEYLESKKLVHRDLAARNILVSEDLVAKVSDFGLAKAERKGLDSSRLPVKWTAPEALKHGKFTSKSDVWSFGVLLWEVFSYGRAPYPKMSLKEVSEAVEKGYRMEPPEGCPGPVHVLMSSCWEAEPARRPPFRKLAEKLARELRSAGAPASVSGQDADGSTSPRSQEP", "conditions": "read-out: %Inh CTK"}, "IRAK1": {"target": "IRAK1 (Homo sapiens, UniProt P51617)", "sequence (P51617 whole entry)": "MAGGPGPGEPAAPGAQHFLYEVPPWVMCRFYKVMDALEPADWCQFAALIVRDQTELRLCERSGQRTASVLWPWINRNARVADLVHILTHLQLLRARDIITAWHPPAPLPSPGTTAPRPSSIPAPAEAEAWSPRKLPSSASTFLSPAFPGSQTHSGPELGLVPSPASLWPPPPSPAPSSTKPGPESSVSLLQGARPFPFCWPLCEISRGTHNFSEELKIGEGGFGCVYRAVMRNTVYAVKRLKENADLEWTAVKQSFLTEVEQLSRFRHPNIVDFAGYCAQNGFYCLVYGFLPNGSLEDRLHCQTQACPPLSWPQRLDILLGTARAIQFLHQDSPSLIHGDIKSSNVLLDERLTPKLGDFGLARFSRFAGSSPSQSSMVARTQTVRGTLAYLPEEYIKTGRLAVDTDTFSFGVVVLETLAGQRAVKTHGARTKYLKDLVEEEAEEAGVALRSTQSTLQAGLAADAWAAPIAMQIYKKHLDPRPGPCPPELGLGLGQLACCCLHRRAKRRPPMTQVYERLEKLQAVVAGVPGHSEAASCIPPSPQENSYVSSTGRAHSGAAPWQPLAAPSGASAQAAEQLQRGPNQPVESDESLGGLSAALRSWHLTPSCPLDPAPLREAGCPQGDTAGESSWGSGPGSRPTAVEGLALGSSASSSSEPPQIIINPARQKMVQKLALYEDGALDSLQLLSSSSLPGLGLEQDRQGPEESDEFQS", "conditions": "read-out: %Inh IRAK1"}, "ITK": {"target": "T3, ITK (Homo sapiens, UniProt Q08881)", "T3 sequence (Q08881 1-620)": "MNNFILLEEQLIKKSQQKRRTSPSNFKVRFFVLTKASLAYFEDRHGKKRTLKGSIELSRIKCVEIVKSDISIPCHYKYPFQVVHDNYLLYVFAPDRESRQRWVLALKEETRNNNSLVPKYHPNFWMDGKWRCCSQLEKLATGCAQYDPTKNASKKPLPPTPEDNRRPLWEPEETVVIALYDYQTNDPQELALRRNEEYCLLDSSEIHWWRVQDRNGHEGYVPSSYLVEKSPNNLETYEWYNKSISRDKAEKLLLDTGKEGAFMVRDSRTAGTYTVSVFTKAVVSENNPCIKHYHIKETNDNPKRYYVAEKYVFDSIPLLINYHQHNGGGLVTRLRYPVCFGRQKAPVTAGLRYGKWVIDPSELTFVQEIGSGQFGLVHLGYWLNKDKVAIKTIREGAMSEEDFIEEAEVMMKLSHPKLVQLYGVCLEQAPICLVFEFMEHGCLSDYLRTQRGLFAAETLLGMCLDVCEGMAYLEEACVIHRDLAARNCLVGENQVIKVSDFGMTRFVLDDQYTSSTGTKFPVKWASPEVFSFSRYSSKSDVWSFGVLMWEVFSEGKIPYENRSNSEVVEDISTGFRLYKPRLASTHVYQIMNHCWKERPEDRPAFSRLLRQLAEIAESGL", "conditions": "read-out: %Inh ITK"}, "DLK": {"target": "T4, DLK (Homo sapiens, UniProt Q12852)", "T4 sequence (Q12852 1-859)": "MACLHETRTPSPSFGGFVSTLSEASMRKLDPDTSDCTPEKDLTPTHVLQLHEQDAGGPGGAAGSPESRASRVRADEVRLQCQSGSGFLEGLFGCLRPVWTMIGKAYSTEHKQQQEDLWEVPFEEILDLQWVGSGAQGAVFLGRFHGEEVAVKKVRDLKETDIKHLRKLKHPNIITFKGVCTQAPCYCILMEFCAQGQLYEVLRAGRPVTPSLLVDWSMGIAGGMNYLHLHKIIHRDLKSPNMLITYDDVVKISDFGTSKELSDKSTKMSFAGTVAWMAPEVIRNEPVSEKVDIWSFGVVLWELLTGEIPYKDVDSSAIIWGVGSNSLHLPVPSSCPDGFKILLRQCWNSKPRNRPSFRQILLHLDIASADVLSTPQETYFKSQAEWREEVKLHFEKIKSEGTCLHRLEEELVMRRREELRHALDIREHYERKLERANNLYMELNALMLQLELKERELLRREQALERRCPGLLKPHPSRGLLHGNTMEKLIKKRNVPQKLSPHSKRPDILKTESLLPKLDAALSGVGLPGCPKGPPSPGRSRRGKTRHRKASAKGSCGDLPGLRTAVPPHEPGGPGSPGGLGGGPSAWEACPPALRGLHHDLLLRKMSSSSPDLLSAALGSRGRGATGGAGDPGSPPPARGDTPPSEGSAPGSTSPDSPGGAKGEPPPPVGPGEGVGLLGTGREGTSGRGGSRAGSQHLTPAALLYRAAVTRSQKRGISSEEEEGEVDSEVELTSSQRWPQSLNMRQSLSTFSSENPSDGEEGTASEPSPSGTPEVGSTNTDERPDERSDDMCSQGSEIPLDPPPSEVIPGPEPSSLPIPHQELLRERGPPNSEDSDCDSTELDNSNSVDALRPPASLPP", "conditions": "read-out: %Inh DLK"}}}
{"smiles": "COc1cccc(OC)c1C(=O)Nc1cccc(-c2nn3ccccc3c2-c2ccnc(Nc3cccc(F)c3)n2)c1", "note": "[UNC10225310A]", "values": [{"measurement": "inhibition at 1 µM", "setting": "MAP3K2", "value": 7, "unit": "%"}, {"measurement": "inhibition at 1 µM", "setting": "HCK", "value": 30, "unit": "%"}, {"measurement": "inhibition at 1 µM", "setting": "FGR", "value": 23, "unit": "%"}, {"measurement": "inhibition at 1 µM", "setting": "FGFR2", "value": 0, "unit": "%"}, {"measurement": "inhibition at 1 µM", "setting": "CTK", "value": 21, "unit": "%"}, {"measurement": "inhibition at 1 µM", "setting": "IRAK1", "value": 0, "unit": "%"}, {"measurement": "inhibition at 1 µM", "setting": "ITK", "value": 93.8, "unit": "%"}, {"measurement": "inhibition at 1 µM", "setting": "DLK", "value": 0, "unit": "%"}]}
{"smiles": "Cc1ccc(NC(=O)Nc2cccc(C(F)(F)F)c2)cc1", "note": "[UNC10225187A]", "values": [{"measurement": "inhibition at 1 µM", "setting": "MAP3K2", "value": 0, "unit": "%"}, {"measurement": "inhibition at 1 µM", "setting": "HCK", "value": 0, "unit": "%"}, {"measurement": "inhibition at 1 µM", "setting": "FGR", "value": 0, "unit": "%"}, {"measurement": "inhibition at 1 µM", "setting": "FGFR2", "value": 0, "unit": "%"}, {"measurement": "inhibition at 1 µM", "setting": "CTK", "value": 0, "unit": "%"}, {"measurement": "inhibition at 1 µM", "setting": "IRAK1", "value": 0, "unit": "%"}, {"measurement": "inhibition at 1 µM", "setting": "ITK", "value": 12, "unit": "%"}, {"measurement": "inhibition at 1 µM", "setting": "DLK", "value": 0, "unit": "%"}]}
{"smiles": "O=c1cc(N2CCOCC2)nc2n(Cc3cccc(Cl)c3Cl)c(C3CC3)nn12", "note": "[UNC10225469A]", "values": [{"measurement": "inhibition at 1 µM", "setting": "MAP3K2", "value": 0, "unit": "%"}, {"measurement": "inhibition at 1 µM", "setting": "HCK", "value": 0, "unit": "%"}, {"measurement": "inhibition at 1 µM", "setting": "FGR", "value": 9, "unit": "%"}, {"measurement": "inhibition at 1 µM", "setting": "FGFR2", "value": 1, "unit": "%"}, {"measurement": "inhibition at 1 µM", "setting": "CTK", "value": 0, "unit": "%"}, {"measurement": "inhibition at 1 µM", "setting": "IRAK1", "value": 0, "unit": "%"}, {"measurement": "inhibition at 1 µM", "setting": "ITK", "value": 4, "unit": "%"}, {"measurement": "inhibition at 1 µM", "setting": "DLK", "value": 0, "unit": "%"}]}
{"smiles": "CS(=O)(=O)Cc1ccc(Nc2nccc(-c3c(-c4cccc(NC(=O)C5CCCCC5)c4)nn4ncccc34)n2)cc1", "note": "[UNC10225159A]", "values": [{"measurement": "inhibition at 1 µM", "setting": "MAP3K2", "value": 15, "unit": "%"}, {"measurement": "inhibition at 1 µM", "setting": "HCK", "value": 1, "unit": "%"}, {"measurement": "inhibition at 1 µM", "setting": "FGR", "value": 27, "unit": "%"}, {"measurement": "inhibition at 1 µM", "setting": "FGFR2", "value": 41, "unit": "%"}, {"measurement": "inhibition at 1 µM", "setting": "CTK", "value": 38, "unit": "%"}, {"measurement": "inhibition at 1 µM", "setting": "IRAK1", "value": 24, "unit": "%"}, {"measurement": "inhibition at 1 µM", "setting": "ITK", "value": 6, "unit": "%"}, {"measurement": "inhibition at 1 µM", "setting": "DLK", "value": 41, "unit": "%"}]}
{"smiles": "Cn1cc(-c2cnc(N)c3c(-c4ccc5c(c4)CCN5C(=O)Cc4ccccc4)csc23)cn1", "note": "[UNC10225012A]", "values": [{"measurement": "inhibition at 1 µM", "setting": "MAP3K2", "value": 75, "unit": "%"}, {"measurement": "inhibition at 1 µM", "setting": "HCK", "value": 86, "unit": "%"}, {"measurement": "inhibition at 1 µM", "setting": "FGR", "value": 75, "unit": "%"}, {"measurement": "inhibition at 1 µM", "setting": "FGFR2", "value": 40, "unit": "%"}, {"measurement": "inhibition at 1 µM", "setting": "CTK", "value": 62, "unit": "%"}, {"measurement": "inhibition at 1 µM", "setting": "IRAK1", "value": 0, "unit": "%"}, {"measurement": "inhibition at 1 µM", "setting": "ITK", "value": 23, "unit": "%"}, {"measurement": "inhibition at 1 µM", "setting": "DLK", "value": 0, "unit": "%"}]}
